{"source": "patent US20100204202A1", "about": "“DRUG FOR ALLEVIATING MOTOR COMPLICATIONS OR PSYCHIATRIC SYMPTOMS OF PARKINSON'S DISEASE” (Asubio Pharma Co., Ltd., priority 2007, published 2010)", "key": {"[1]": {"biological_target": "T1, rat serotonin 1A receptors (Rattus norvegicus, UniProt P19327)", "T1 construct": "Each rat was decapitated and the hippocampus was quickly removed; from tissue; host or cells: hippocampus of male Wistar rats", "T1 sequence (P19327 1-422)": "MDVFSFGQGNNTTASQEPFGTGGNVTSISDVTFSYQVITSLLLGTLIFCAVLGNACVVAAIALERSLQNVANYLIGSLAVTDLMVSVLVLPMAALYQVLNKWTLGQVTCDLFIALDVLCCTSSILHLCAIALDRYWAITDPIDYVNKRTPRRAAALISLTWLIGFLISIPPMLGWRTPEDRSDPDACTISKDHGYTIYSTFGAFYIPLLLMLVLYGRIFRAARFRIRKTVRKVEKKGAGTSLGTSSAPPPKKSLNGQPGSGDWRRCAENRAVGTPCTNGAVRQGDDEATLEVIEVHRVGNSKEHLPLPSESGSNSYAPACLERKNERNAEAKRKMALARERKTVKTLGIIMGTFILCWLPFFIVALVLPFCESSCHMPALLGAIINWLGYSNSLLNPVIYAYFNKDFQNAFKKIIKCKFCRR", "test": "Adenylate cyclase inhibition test via rat serotonin 1A receptors (full agonist-partial agonist judgment test), rat hippocampus membranes", "assay_type": "biochemical", "conditions": "for inhibition: read-out: maximum inhibitory reaction of adenylate cyclase activity", "method": "For the test, Wistar male rats supplied by Shimizu Laboratory Supplies were used (9 to 15 weeks old). Each rat was decapitated and the hippocampus was quickly removed. It was homogenized in 10 volumes of buffer (i.e., 25 mM Tris-HCl, 1 mM EGTA, 5 mM EDTA, 5 mM DTT, 300 mM sucrose, 100 KIU/ml aprotinin, pH 7.4). This was then centrifuged at 500×g, 4° C. for 5 minutes, the supernatant was further centrifuged at 39,000×g, 4° C. for 10 minutes, and the residue was used as the rat hippocampus membrane specimen. The rat hippocampus membrane specimen was diluted by a buffer to 20 to 90 μg/mL of protein, then 50 μL of this cell membrane suspension was added to a 200 μL assay buffer containing each test sample (25 mM Tris-HCl, 100 mM NaCl, 2 mM MgCl2. 0.25 mM ATP, 5 mM phosphocreatine, 10 μg/mL creatine phosphokinase, 0.2 mM IBMX, 10 μM GTP, 10 μM forskolin, pH 7.4) and allowed to react at 30° C. for 5 minutes. 0.2N HCl was added in 250 μL to stop the reaction, then the cAMP produced was assayed by the radioimmunoassay method. […] Note that the adenylate cyclase activity was measured using as an indicator the amount of cAMP produced by the same enzyme. The rate of inhibition by the serotonin 1A receptor agonist was found using the amount of production due to forskolin (10 μM) stimulus as 100%."}, "[2]": {"system": "Parkinson's disease model rats", "test": "Hyperkinesia of the forelimbs and shortening of rotational behavior duration induced by repeated doses of levodopa", "assay_type": "in vivo, rat", "text": "In rats with unilateral nigrostriatal dopamine nerve destruction generally used as Parkinson's disease animal models, it became clear that by administering levodopa by repeated dosage for about 5 weeks, behavior resembling the symptoms of advanced stage Parkinson's disease appeared. That is, in Parkinson's disease model rats prepared in the same way as in Example 4, along with repeated doses of levodopa, abnormal behavior such as involuntary extending of the forelimb or opening or closing of the hand, up-and-down movement of the wrist, choreiform tremor in the forelimb on the opposite side of microinjection of 6-hydroxydopamine was observed (FIG. 3). This abnormal behavior is reported by Steece-Collier et al. (Steece-Collier K. et al., “Embryonic mesencephalic grafts increase levodopa-induced forelimb hyperkinesia in parkinsonian rats”, Movement Disorders, 2003, 18, p. 1442-1454) as hyperkinesia of the forelimbs.\nThis appears dependent on the period of repeated doses of levodopa and reportedly is similar to clinical dyskinesia. […] Bibbiani et al. (Bibbiani F. et al., “Serotonin 5-HT1A agonist improves motor complications in rodent and primate parkinsonian models”, Neurology, 2001, 57, p. 1829-1834) report that in Parkinson's disease model rats, along with repeated doses of levodopa, a shortening of the rotational behavior duration is observed and that this phenomenon resembles the wearing off phenomenon in clinical studies.\nThat is, they treated each group by repeated doses of levodopa and repeated dosage of the tested substance for about 2 weeks (Monday to Friday) and observed the hyperkinesia of the forelimbs and rotational behavior after levodopa administration. Note that the SUN N4057 was subcutaneously administered right before levodopa administration, the sarizotan was orally administered about 20 minutes before levodopa dosage in accordance with above-mentioned known reports (Bibbiani F. et al., Neurology, 2001, 57, p. 1829-1834), and the Example Compound 4 of Japanese Patent Publication No. 2005-298402A was subcutaneously administered about 30 minutes before levodopa dosage in accordance with the above-mentioned Japanese Patent Publication No. 2005-298402A. Further, for the solvent, for SUN N4057 and Example Compound 4 of Japanese Patent Publication No. 2005-298402A, physiological saline was used.\nIn the same way as Example 4, Parkinson's disease model rats were prepared and the rats treated by repeated doses of levodopa (twice a day, Monday to Friday) for 5 weeks and measured for hyperkinesia of the forelimbs and rotational behavior. Further, based on the results of the hyperkinesia of the forelimbs and rotational behavior duration, the rats were assigned to the groups so as to prevent any significant difference between them, then the effects of the tested substances on these behaviors resembling symptoms of advanced stage Parkinson's disease patients were compared and studied. […] Note that compound Ib (0.3, 1 mg/kg) and compound Ic (0.3, 1 mg/kg) were both intraperitoneally administered right before levodopa administration. For the solvent, physiological saline was used."}, "rats [3]": {"system": "rats", "test": "Forced swimming method (anti-depressive action)", "assay_type": "in vivo, rat", "conditions": "10 mg/kg i.p.", "text": "For the test, Crl: CD(SD) male rats supplied by Charles River Japan were used (6 weeks old at start of test). For the forced swimming test, the method of the improved type reported by Lucki et al. (Lucki I., “The forced swimming test as a model for core and component behavioral effects of antidepressant drugs”, Behavioural Pharmacology, 1997, 8, p. 523-532; Cryan J. F. et al., “Assessing antidepressant activity in rodents: recent developments and future needs”, TRENDS in Pharmacological Sciences, 2002, 23, p. 238-245) was used. On day 1, each rat was placed in a cylinder filled with water (height 45 cm×diameter 30 cm, water depth 30 cm, water temperature 23° C., water depth set to depth by which back legs and tail of rat will not touch the bottom). The rat was taken out after 15 minutes. At this time, the immobility period (seconds) of minutes 10-15 (5 minutes) was recorded. Based on the results, the rats were assigned to five groups so that there would be no difference among the groups. On day 2, each rat was placed in a cylinder filled with water the same as day 1 and the immobility period (seconds), swimming behavior period (seconds), and climbing behavior period (seconds) of minutes 0-5 (5 minutes) were measured. Note that the immobility period was defined as the minimum extent of movement for the rat to hold its head above the water, the swimming behavior as the swimming behavior circling around the inside of the cylinder in the horizontal direction, and the climbing behavior as the climbing behavior moving the forelimbs in the vertical direction along the cylinder walls to try to climb them. The tested substance was intraperitoneally administered 15 minutes after the end of swimming on day 1, and 4 hours and 30 minutes before swimming on day 2. Further, for the amount of locomotor activity, a measuring system (shape 48.8×48.8×30 cm, vertical 8 fractions, horizontal 8 fractions, for total of 64 fractions, Biomedica) set in a blacked out soundproof box was used to record the amount of locomotor activity of the rats at minutes 0-15 (15 minutes). Note that the dosages and timings of administration of the tested substances were set in the same way as the forced swimming test and the substance were intraperitoneally administered 24 hours, 4 hours, and 30 minutes before measurement of the amount of locomotor activity."}, "rats [4]": {"system": "rats", "test": "Amount of locomotor activity", "assay_type": "in vivo, rat", "conditions": "10 mg/kg i.p.; minutes 0-5", "text": "For the test, Crl: CD(SD) male rats supplied by Charles River Japan were used (6 weeks old at start of test). For the forced swimming test, the method of the improved type reported by Lucki et al. (Lucki I., “The forced swimming test as a model for core and component behavioral effects of antidepressant drugs”, Behavioural Pharmacology, 1997, 8, p. 523-532; Cryan J. F. et al., “Assessing antidepressant activity in rodents: recent developments and future needs”, TRENDS in Pharmacological Sciences, 2002, 23, p. 238-245) was used. On day 1, each rat was placed in a cylinder filled with water (height 45 cm×diameter 30 cm, water depth 30 cm, water temperature 23° C., water depth set to depth by which back legs and tail of rat will not touch the bottom). The rat was taken out after 15 minutes. At this time, the immobility period (seconds) of minutes 10-15 (5 minutes) was recorded. Based on the results, the rats were assigned to five groups so that there would be no difference among the groups. On day 2, each rat was placed in a cylinder filled with water the same as day 1 and the immobility period (seconds), swimming behavior period (seconds), and climbing behavior period (seconds) of minutes 0-5 (5 minutes) were measured. […]"}}, "note": "Where two headings read alike, the source gives them in different places.", "data": [{"smiles": "CCCN(CCC)[C@@H]1CCc2cccc(O)c2C1", "note": "[8-OH-DPAT, (R)-(+)-8-hydroxy-2-(di-n-propylamino)tetraline]", "values": [{"measurement": "inhibition", "setting": "[1]", "value": 32, "unit": "%"}]}, {"smiles": "O=C1c2ccccc2S(=O)(=O)N1CCCCN1CCN(c2ncccn2)CC1", "note": "[ipsapirone]", "values": [{"measurement": "IC50", "setting": "[1]; forskolin (10 μM) stimulated, rat hippocampus membranes, read-out: IC50 of adenylate cyclase inhibition (for the maximum reaction)", "value": 39, "unit": "nM"}, {"measurement": "inhibition", "setting": "[1]; forskolin (10 μM) stimulus = 100%, rat hippocampus membranes", "value": 19, "unit": "%"}]}, {"smiles": "Cc1ccnc(C2=CCN(CCCCN3C(=O)c4ccccc4OC=C3Cl)CC2)n1.O=C(O)/C=C/C(=O)O", "note": "[compound Ic, 3-chloro-4,5-dihydro-4-(4-{4-[(4-methyl)-2-pyrimidinyl]-1,2,3,6-tetrahydropyridin-1-yl}butyl)-1,4-benzoxazepin-5-one fumarate]", "values": [{"measurement": "hyperkinesia of the forelimbs", "setting": "[2]; 0.3 mg/kg i.p. repeated 2 weeks, 30 minutes after levodopa dosage", "value": "significantly inhibited"}, {"measurement": "rotational behavior duration", "setting": "[2]; 1.0 mg/kg i.p. repeated 2 weeks", "value": "significantly prolonged"}, {"measurement": "hyperkinesia of the forelimbs", "setting": "[2]; 1.0 mg/kg i.p. repeated 2 weeks, 30 minutes and 1 hour after levodopa dosage", "value": "significantly inhibited"}]}, {"smiles": "CNCCCN1c2ccccc2CCc2ccccc21", "note": "[desipramine]", "values": [{"measurement": "climbing behavior period", "setting": "rats [3]", "value": "significant increase"}, {"measurement": "immobility period", "setting": "rats [3]; minutes 0-5 on day 2", "value": "significant shortening of the immobility period"}, {"measurement": "amount of locomotor activity", "setting": "rats [4]", "value": "decline"}]}, {"smiles": "Cl.O=C1c2ccccc2OC=C(Cl)N1CCCCN1CC=C(c2ncccn2)CC1", "note": "[compound Ib, 3-chloro-4,5-dihydro-4-{4-[4-(2-pyrimidinyl)-1,2,3,6-tetrahydropyridin-1-yl]butyl}-1,4-benzoxazepin-5-one hydrochloride]", "values": [{"measurement": "rotational behavior duration", "setting": "[2]; 0.3, 1 mg/kg i.p. repeated 2 weeks", "value": "tended to be prolonged"}, {"measurement": "hyperkinesia of the forelimbs", "setting": "[2]; 0.3, 1 mg/kg i.p. repeated 2 weeks, 30 minutes and 1 hour after levodopa dosage", "value": "significantly inhibited"}]}]}
